Here are results for 31 compounds from US20110280831A1, “COMBINATIONS COMPRISING METHOTREXATE AND DHODH INHIBITORS” (priority 2009, published 2011).

This assay addresses human DHODH (Homo sapiens, UniProt Q02127). Kind of assay: Inhibition of human DHODH activity assay (DCIP chromogen reduction). It counts as biochemical. Particulars: enzyme extracts, 10 min at room temperature, absorbance at 600 nm, duplicate; read-out: hDHODH IC50. The protocol: DHODH activity and its inhibition were studied using a chromogen reduction assay with DCIP (2,6-dichlorophenol-indophenol).
Enzyme extracts (8 μl, ˜1.5 μg of human protein) were incubated in 96-well plates. The assay mixture (200 μl) contained 200 μM CoQD, 100 μM L-DHO, 120 μM DCIP in the assay buffer (100 mM HEPES pH 8.0, 150 mM NaCl, 10% Glicerol, 0.05% Triton X-100) and 2 μl of test compound. The compounds were dissolved in DMSO at a stock concentration of 1 mM, and tested at different concentrations varying from 10 μM to 1 pM to calculate an IC50 (concentration of inhibitor required for 50% of inhibition).
The reaction was initiated by adding the enzyme and then incubated for 10 min at room temperature before measuring DCIP reduction by counting a decrease in absorbance at 600 nm using standard instrumentation (Spectramax).
All reactions were carried out in duplicate and graphs, determining IC50 values for each compound, were plotted using the ABase software.

Chain of human DHODH (Q02127 whole entry): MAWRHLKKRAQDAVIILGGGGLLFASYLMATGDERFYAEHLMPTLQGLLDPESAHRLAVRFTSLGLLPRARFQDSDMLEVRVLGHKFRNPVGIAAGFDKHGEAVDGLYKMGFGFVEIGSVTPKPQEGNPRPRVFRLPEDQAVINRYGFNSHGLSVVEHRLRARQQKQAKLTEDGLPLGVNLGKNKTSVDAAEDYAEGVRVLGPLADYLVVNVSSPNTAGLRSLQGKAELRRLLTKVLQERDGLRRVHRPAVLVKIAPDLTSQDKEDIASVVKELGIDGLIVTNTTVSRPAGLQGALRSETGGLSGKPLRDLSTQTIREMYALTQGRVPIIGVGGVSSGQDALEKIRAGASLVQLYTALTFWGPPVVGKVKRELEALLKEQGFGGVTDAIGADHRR

Usually IC50 stands for the concentration that gives 50% inhibition. For the compound `COc1cccc(-c2ncc(Nc3ccc(C)cc3C(=O)O)cc2C(F)(F)F)c1` [Compound 77, 2-(6-(3-Methoxyphenyl)-5-(trifluoromethyl)pyridin-3-ylamino)-5-methylbenzoic acid], the IC50 was found to be 12 nM. Next, `O=C(O)c1cc(C2CC2)ccc1Nc1cnc(-c2ccccc2)nc1` [Compound 1, 5-cyclopropyl-2-(2-phenylpyrimidin-5-ylamino)benzoic acid]: 105 nM; `O=C(O)c1cc(C2CC2)ccc1Nc1cnc(-c2c(F)cc(O)cc2F)nc1` [Compound 6, 5-cyclopropyl-2-(2-(2,6-difluoro-4-hydroxyphenyl)pyrimidin-5-ylamino)benzoic acid]: 57 nM. As for `Cc1ccc(Nc2cnc(-c3cccc(OC(C)C)c3)c(C)c2)c(C(=O)O)c1` [Compound 67, 2-(6-(3-Isopropoxyphenyl)-5-methylpyridin-3-ylamino)-5-methylbenzoic acid], the 50% inhibitory concentration (IC50) is 11 nM. Regarding `COc1cccc(-c2ncc(Nc3ccc(C)cc3C(=O)O)cc2C)c1` [Compound 51, 2-(6-(3-Methoxyphenyl)-5-methylpyridin-3-ylamino)-5-methylbenzoic acid], the IC50 came out at 21 nM. On to `Cc1ccc(Nc2cc(Cl)cnc2-c2ccccc2)c(C(=O)O)c1` [Compound 18, 2-(5-Chloro-2-phenylpyridin-3-ylamino)-5-methylbenzoic acid], for which the IC50 came to 62 nM. For `O=C(O)c1cc(C2CC2)ccc1Nc1ccc(-c2ccccc2Cl)nc1` [Compound 112, 2-(6-(2-Chlorophenyl)pyridin-3-ylamino)-5-cyclopropylbenzoic acid], the IC50 was 4 nM. Turning to `Cc1ccc(Nc2ccc(-c3ccc(F)cc3F)nc2)c(C(=O)O)c1` [Compound 141, 2-(6-(2,4-difluorophenyl)pyridin-3-ylamino)-5-methylbenzoic acid], the half-inhibitory concentration (IC50) was 146 nM. Consider `Cc1cc(Nc2ccc(C3CC3)cc2C(=O)O)cnc1-c1cccc(OC(F)(F)F)c1` [Compound 89, 5-Cyclopropyl-2-(5-methyl-6-(3-(trifluoromethoxy)phenyl)pyridin-3-ylamino)benzoic acid], for which the IC50 stood at 5 nM.

As for `Cc1cc(Nc2ccc(C3CC3)cc2C(=O)O)cnc1-c1ccccc1` [Compound 91, 5-Cyclopropyl-2-(5-methyl-6-phenylpyridin-3-ylamino)benzoic acid], the IC50 was found to be 6 nM.

Turning to `COc1ccc(F)cc1-c1ncc(Nc2ccc(C)cc2C(=O)O)cc1C` [Compound 148, 2-(6-(5-fluoro-2-methoxyphenyl)-5-methylpyridin-3-ylamino)-5-methylbenzoic acid], the IC50 came out at 46 nM. Regarding `Cc1ccc(Nc2cnc(-c3ccncc3F)c(C)c2)c(C(=O)O)c1` [Compound 101, 2-(3′-Fluoro-3-methyl-2,4′-bipyridin-5-ylamino)-5-methylbenzoic acid], the IC50 is 37 nM. As to `O=C(O)c1cc(C2CC2)ccc1Nc1cnc(-c2ccccc2C2CC2)nc1` [Compound 14, 5-Cyclopropyl-2-(2-(2-cyclopropylphenyl)pyrimidin-5-ylamino)benzoic acid], the IC50 was found to be 57 nM. `Cc1ccc(Nc2ccc(-c3ccncc3Cl)nc2)c(C(=O)O)c1` [Compound 34, 2-(3′-chloro-2,4′-bipyridin-5-ylamino)-5-methylbenzoic acid]: the IC50 was 109 nM. Turning to `O=C(O)c1cc(C2CC2)ccc1Nc1cncc(-c2ccccc2)c1` [Compound 15, 5-cyclopropyl-2-(5-phenylpyridin-3-ylamino)benzoic acid], the IC50 stood at 113 nM. Take `O=C(O)c1cc(C2CC2)ccc1Nc1cnc(-c2ccccc2)c(-c2ccccc2)c1` [Compound 19, 5-Cyclopropyl-2-(5,6-diphenylpyridin-3-ylamino)benzoic acid]: the IC50 was found to be 10 nM.

Turning to `Cc1ccc(Nc2cnc(-c3cccc(Cl)c3)c(C)c2)c(C(=O)O)c1` [Compound 95, 2-(6-(3-Chlorophenyl)-5-methylpyridin-3-ylamino)-5-methylbenzoic acid], the IC50 turned out to be 10 nM. In the case of `CCOc1cccc(-c2cc(C)c(Nc3ccc(C)cc3C(=O)O)cn2)c1` [Compound 44, 2-(6-(3-Ethoxyphenyl)-4-methylpyridin-3-ylamino)-5-methylbenzoic acid], the IC50 is 78 nM. As to `O=C(O)c1cc(C2CC2)ccc1Nc1cnc(-c2cc(OC(F)(F)F)ccc2F)nc1` [Compound 135, 2-(2-(2-fluoro-5-trifluoromethoxyphenyl)pyrimidin-5-ylamino)-5-cyclopropylbenzoic acid], the IC50 is 21 nM. The value for `Cc1ccc(Nc2ccc(-c3cccc(C(F)(F)F)c3)nc2)c(C(=O)O)c1` [Compound 4, 5-Methyl-2-(6-(3-(trifluoromethyl)phenyl)pyridin-3-ylamino)benzoic acid] was 98 nM; that for `Cc1ccc(Nc2ccc(-c3ccccc3F)nc2)c(C(=O)O)c1` [Compound 57, 2-(6-(2-Fluorophenyl)pyridin-3-ylamino)-5-methylbenzoic acid] was 91 nM. On to `Cc1ccc(Nc2cnc(-c3cccc(C(N)=O)c3)c(C)c2)c(C(=O)O)c1` [Compound 73, 2-(6-(3-Carbamoylphenyl)-5-methylpyridin-3-ylamino)-5-methylbenzoic acid], for which the IC50 came out at 190 nM. For `O=C(O)c1cc(C2CC2)ccc1Nc1cnc(-c2ccccc2C(F)(F)F)nc1` [Compound 128, 2-(2-(2-trifluoromethylphenyl)pyrimidin-5-ylamino)-5-cyclopropylbenzoic acid], the half-maximal inhibitory concentration (IC50) came out at 9 nM. `Cc1ccc(Nc2cnc(-c3ccccc3C(F)(F)F)c(C)c2)c(C(=O)O)c1` [Compound 93, 5-Methyl-2-(5-methyl-6-(2-(trifluoromethyl)phenyl)pyridin-3-ylamino)benzoic acid]: the IC50 is 20 nM. Next, `O=C(O)c1cc(C2CC2)ccc1Nc1cnc(C2CC2)c(-c2ccccc2)c1` [Compound 25, 5-cyclopropyl-2-(6-cyclopropyl-5-phenylpyridin-3-ylamino)benzoic acid]: 28 nM; `CCOc1cccc(-c2ccc(Nc3ccc(C)cc3C(=O)O)cn2)c1` [Compound 41, 2-(6-(3-Ethoxyphenyl)pyridin-3-ylamino)-5-methylbenzoic acid]: 190 nM; `O=C(O)c1cc(C2CC2)ccc1Nc1cnc(-c2cc(F)ccc2F)nc1` [Compound 131, 2-(2-(2,5-difluorophenyl)pyrimidin-5-ylamino)-5-cyclopropylbenzoic acid]: 38 nM.

`Cc1ccccc1-c1ncc(Nc2ccc(C3CC3)cc2C(=O)O)cn1` [Compound 129, 2-(2-o-tolylpyrimidin-5-ylamino)-5-cyclopropylbenzoic acid]: the IC50 was determined as 12 nM. Regarding `CCOc1ccc(F)c(-c2ccc(Nc3ccc(C)cc3C(=O)O)cn2)c1` [Compound 54, 2-(6-(5-Ethoxy-2-fluorophenyl)pyridin-3-ylamino)-5-methylbenzoic acid], the IC50 turned out to be 19 nM. Next, `O=C(O)c1cc(C2CC2)ccc1Nc1cnc(-c2ccccc2)c(C(F)(F)F)c1` [Compound 105, 5-Cyclopropyl-2-(6-phenyl-5-(trifluoromethyl)pyridin-3-ylamino)benzoic acid]: 2 nM; `Cc1ccc(Nc2ccc(-c3cc(OC(C)C)ccc3F)nc2)c(C(=O)O)c1` [Compound 66, 2-(6-(2-Fluoro-5-isopropoxyphenyl)pyridin-3-ylamino)-5-methylbenzoic acid]: 28 nM.
